According to PubChem BioAssay (NCI):
Several values for one entry are separate records, joined by “and”; a condition that tells them apart may be missing. Identical values can stand only once.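 How tested: cells in 96-well plates exposed to compound for 48 hours at five concentrations. At the GI50, growth is halved. TGI denotes the concentration required for complete inhibition of growth.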

Experiments:
Assay in all cases: DTP human tumour cell line panel, 48 h
OVCAR-4 ovarian = test system: OVCAR-4 ovarian
MDA-MB-435 = test system: MDA-MB-435
M14 melanoma = test system: M14 melanoma
IGROV1 ovarian = test system: IGROV1 ovarian
U251 CNS = test system: U251 CNS
UO-31 renal = test system: UO-31 renal
PC-3 prostate = test system: PC-3 prostate
HL-60(TB) leukemia = test system: HL-60(TB) leukemia
RXF 393 renal = test system: RXF 393 renal
SR leukemia = test system: SR leukemia

Compound	GI50 (OVCAR-4 ovarian)	TGI (OVCAR-4 ovarian)	TGI (MDA-MB-435)	GI50 (M14 melanoma)	TGI (IGROV1 ovarian)	TGI (U251 CNS)	TGI (UO-31 renal)	TGI (PC-3 prostate)	TGI (M14 melanoma)	TGI (HL-60(TB) leukemia)	TGI (RXF 393 renal)	GI50 (SR leukemia)	TGI (SR leukemia)	GI50 (MDA-MB-435)	GI50 (HL-60(TB) leukemia)	GI50 (IGROV1 ovarian)	GI50 (UO-31 renal)	GI50 (PC-3 prostate)
CN(C)CC(NC(NCS)C(=O)NCCNc1ccc(NCCNC(=O)C(NCS)NC(CN(C)C)OCCl)c2c1C(=O)c1c(O)ccc(O)c1C2=O)OCCl (configuration not stated)	0.373 µM	2.78 µM and 1.3 µM	1.45 µM	0.506 µM	2.49 µM	0.0575 µM	1.52 µM	1.46 µM										
COc1ccc(/C=C2\CN(C)Cc3c2[nH]c(=O)c(C#N)c3-c2ccc(OC)cc2)cc1		> 100 µM	> 100 µM		> 100 µM	> 100 µM	> 100 µM	> 100 µM	> 100 µM	31.8 µM	63.3 µM							
CC(C)(C)OC(=O)NCC(=O)N1CCCN(C(=O)CNC(=O)OC(C)(C)C)CC1		> 100 µM	> 100 µM		> 100 µM	> 100 µM	> 100 µM	> 100 µM	> 100 µM	> 100 µM	> 100 µM							
CC(C)CCC[C@@H](C)[C@H]1CCC2C3=CCC4C(=O)C=CC(=O)C4C3CC[C@@]21C (some centres not stated)	0.159 µM	0.498 µM	1.15 µM		0.719 µM		0.359 µM			> 100 µM		0.263 µM	> 100 µM	0.254 µM	0.27 µM	0.26 µM	0.0721 µM	0.101 µM
CC(C)CCC/C(CBr)=C(\Cl)CCl		2.93 µM	6.25 µM		4.05 µM	13.4 µM	8.4 µM	13.2 µM	4.23 µM		8.17 µM							
COC1/C=C/C(C)C(C(C)C(OC)C(C)CCC(=O)C(C)C(C/C=C/N(C)C=O)OC)OC(=O)/C=C/C=C(\C)CC(OC)C(OC)C2=CC(=O)O[C@@H](C(C)C(OC)CC(OC)/C=C/C(C)C(O)C1)[C@H]2O (some centres not stated)		0.365 µM	0.977 µM			0.301 µM	0.267 µM	0.35 µM	0.309 µM	0.43 µM	0.263 µM		> 31.6 µM					
O=C(C#Cc1cn(C2CC(O)C(CO)O2)c(=O)[nH]c1=O)c1ccccc1 (configuration not stated)		> 100 µM	> 100 µM		> 100 µM	> 100 µM	> 100 µM	> 100 µM	> 100 µM		52.7 µM		> 100 µM					
O=C(O)C1SCCS1		> 100 µM	> 100 µM		> 100 µM	> 100 µM	> 100 µM	> 100 µM	> 100 µM	> 100 µM			> 100 µM					
CC(=O)NC1=C(C)C(=O)c2c(nc3n2CC[C@H]3OC(C)=O)C1=O		3 µM	1.85 µM		8.71 µM	3.22 µM	6.78 µM	1.99 µM	4.01 µM	8.97 µM	3.12 µM							
COC(=O)CCN(CCC(=O)OC)C1CC1		> 100 µM	> 100 µM		> 100 µM	> 100 µM	> 100 µM		> 100 µM	> 100 µM	> 100 µM		> 100 µM					
COc1cc(C2S/C(=C/c3ccccc3)C(=O)N2c2cccc([N+](=O)[O-])c2)cc(OC)c1OC (configuration not stated)		> 100 µM	41.2 µM			> 100 µM	> 100 µM	> 100 µM	> 100 µM				> 100 µM					
Cc1nnc2sc(N/N=C/c3ccccc3)nn12		> 100 µM	> 100 µM		> 100 µM	> 100 µM	> 100 µM	> 100 µM	> 100 µM		> 100 µM							
COc1cc(CNc2nc3cc(C(F)(F)F)ccc3nc2C)cc(OC)c1OC			55.5 µM		33.3 µM	36.7 µM	63.9 µM		30.8 µM	51.9 µM	44.7 µM		76.1 µM					
Cc1cc([N+](=O)[O-])ccc1N=NC(=O)NNc1ccc([N+](=O)[O-])cc1C		31.9 µM	28.4 µM		33.8 µM	32.9 µM	25.2 µM	26.6 µM	28.3 µM	40.9 µM			47.6 µM					
C/C(N=Nc1nc2ccccc2o1)=C1/C=CC=CN1O		> 100 µM	> 100 µM		> 100 µM	> 100 µM	> 100 µM	> 100 µM	> 100 µM		> 100 µM		19.5 µM					
CC(=O)OCC1OC(c2nnc(C)o2)=CC(OC(C)=O)C1OC(C)=O (configuration not stated)		> 100 µM	> 100 µM		> 100 µM	> 100 µM	> 100 µM	> 100 µM		> 100 µM	> 100 µM		> 100 µM					
COc1ccc2c(c1)-c1oc3ccccc3c(=O)c1CO2			> 100 µM		> 100 µM	> 100 µM	88.4 µM	> 100 µM	> 100 µM									
CS(=O)(=O)O.[Ag]		9.43 µM	9.78 µM		13.7 µM	30.6 µM	3.52 µM	27.2 µM	9.44 µM	11.4 µM	42 µM							
COC(=O)c1cccc(C(=O)OC)c1		> 100 µM				> 100 µM			> 100 µM	> 100 µM	> 100 µM		> 100 µM					
CCOC(=O)N(C)C1(c2ccccc2)CCN(CCCC(=O)c2ccc(F)cc2)CC1		> 100 µM	53.6 µM		> 100 µM	> 100 µM		> 100 µM	32.1 µM	79.1 µM	> 100 µM		45.8 µM					
N#Cc1nc(/C=C/c2ccccc2)oc1N		> 100 µM	> 100 µM		> 100 µM	> 100 µM	> 100 µM	> 100 µM	> 100 µM		> 100 µM		2.9 µM					
O=C(c1ccccc1)N1C(=S)N(c2ccc([N+](=O)[O-])cc2)C(=Nc2ccccc2)C1=Nc1ccccc1			> 100 µM		> 100 µM	> 100 µM	> 100 µM	> 100 µM	> 100 µM		> 100 µM		> 100 µM					
CC(C)(NC1=NCCO1)c1ccccc1		> 100 µM	> 100 µM		> 100 µM	> 100 µM	> 100 µM	> 100 µM	> 100 µM		> 100 µM							
